Assays:
[1] = test system: hepatitis B virus (HBV); assay: Mouse model of HBV (pHBV1.3 hydrodynamic injection), serum HBV DNA quantitative PCR; type: in vivo, NOD.CB17-Prkdc^scid/J mice
Method: On Day −7, 10 micrograms of the plasmid pHBV1.3 (as per Guidotti, L., et al., Journal of Virology, 1995, 69(10): 6158-6169) was administered to NOD.CB17-Prkdc^scid/J mice via hydrodynamic injection (HDI; rapid 1.6 mL injection into the tail vein). […] As a readout of the anti-HBV effect of various treatments, serum HBV DNA concentration in mice was measured from total extracted DNA using a quantitative PCR assay (primer/probe sequences from Tanaka, Y., et al., Journal of Medical Virology, 2004, 72: 223-229).
Animals were treated with Compound 3 as follows: Starting on Day 0, a 50 mg/kg or 100 mg/kg dosage of Compound 3 was administered orally to animals on a twice-daily frequency for a total of fourteen doses between Days 0 and 7. Compound 3 was dissolved in a co-solvent formulation for administration. Negative control animals were administered either the co-solvent formulation alone, or saline. Animals were treated with lipid nanoparticle (LNP)-encapsulated HBV-targeting siRNAs as follows: On Day 0, an amount of test article equivalent to 0.1 mg/kg siRNA was administered intravenously.
The effect of these treatments was determined by collecting blood on Days 0 (pre-treatment), 4 & 7 and analyzing it for serum HBV DNA content.
Animals were treated with Compound 3 as follows: Starting on Day 0, a 100 mg/kg dosage of Compound 3 was administered orally to animals on a twice-daily frequency for a total of fourteen doses between Days 0 and 7. Compound 3 was dissolved in a co-solvent formulation for administration. Negative control animals were administered either the co-solvent formulation alone, or saline. Animals were treated with ETV as follows: Starting on Day 0, either a 100 ng/kg or a 300 ng/kg dosage of ETV was administered orally to animals on a once-daily frequency for a total of seven doses between Days 0 and 6. ETV was dissolved in DMSO to 2 mg/mL and then diluted in saline for administration.
The effect of these treatments was determined by collecting blood on Days 0 (pre-treatment), 4 & 7 and analyzing it for serum HBV DNA content. Samples with Ct values below the lower limit of quantitation (LLOQ) were set to one-half LLOQ for calculation of group means.

[2] = test system: hepatitis B virus (HBV); assay: Humanized liver chimeric mouse model of chronic HBV infection, serum HBV DNA by quantitative PCR; type: in vivo; settings: mean
Method: (§1) This work was conducted in a well-established humanized liver chimeric mouse model of chronic hepatitis B virus (HBV) infection (Tsuge et al., Hepatology, 42(5), 1046-54 (2005)). A persistent level of HBV infection was established in the animals prior to the treatment phase which started at Day 0.
(§2) The anti-HBV effects were assessed based on serum HBsAg levels using the GS HBsAg EIA 3.0 enzyme linked immunosorbent assay kit from Bio-Rad Laboratories as per manufacturer instructions; and serum HBV DNA levels measured from total extracted DNA using a quantitative PCR assay (primer/probe sequences from Tanaka et al., Journal of Medical Virology, 72, 223-229 (2004)).

[3] = test system: hepatitis B virus (HBV); assay: Humanized liver chimeric mouse model of chronic HBV infection, serum HBsAg by EIA; type: in vivo; settings: mean ± SEM
Method: as §1, §2

[4] = Day 0 (start of treatment), SEM in the line below
[5] = Day 7, Compound 3 oral 100 mg/kg twice daily, SIRNA-NP iv 3 mg/kg every 2 weeks, ETV oral 1.2 μg/kg daily, pegIFN α-2a sc 30 μg/kg twice a week
[6] = Day 21, Compound 3 oral 100 mg/kg twice daily, SIRNA-NP iv 3 mg/kg every 2 weeks, ETV oral 1.2 μg/kg daily, pegIFN α-2a sc 30 μg/kg twice a week

CC[C@@H](C)NS(=O)(=O)c1ccc(F)c(C(=O)Nc2ccc(F)c(F)c2)c1 [Compound 3]
Serum HBV DNA, % of individual pre-treatment baseline (Day 0) ([1]; Example 2, Day 4, Compound 3 50 mg/kg oral twice daily, mean ± SEM): 13 ± 4% | Serum HBV DNA, % of individual pre-treatment baseline (Day 0) ([1]; Example 2, Day 4, Compound 3 100 mg/kg oral twice daily): 8.6 ± 1.5% | Serum HBV DNA, % of individual pre-treatment baseline (Day 0) ([1]; Example 2, Day 7, Compound 3 50 mg/kg oral twice daily): 33 ± 9% | Serum HBV DNA, % of individual pre-treatment baseline (Day 0) ([1]; Example 2, Day 7, Compound 3 100 mg/kg oral twice daily): 12 ± 5% | Serum HBV DNA, % of individual pre-treatment baseline (Day 0) ([1]; Example 3, Day 4, Compound 3 100 mg/kg oral twice daily, mean ± SEM): 9.3 ± 2.5% | Serum HBV DNA, % of individual pre-treatment baseline (Day 0) ([1]; Example 3, Day 7, Compound 3 100 mg/kg oral twice daily): 1.2 ± 0.3% | Serum HBV DNA [2, 4]: 1.70E+08 Copies/mL | Serum HBV DNA [2, 5]: 1.33E+07 Copies/mL | Serum HBV DNA ([2]; Day 14, same dosages): 1.28E+07 Copies/mL | Serum HBV DNA ([2]; Day 21, same dosages): 1.02E+07 Copies/mL | Serum HBV DNA ([2]; Day 28, same dosages): 1.17E+07 Copies/mL | Serum HBsAg ([3]; Day 0 (start of treatment)): 2965 ± 616 IU/mL | Serum HBsAg [3, 6]: 4158 ± 355 IU/mL

C=C1[C@H](CO)[C@@H](O)C[C@@H]1n1cnc2c(=O)[nH]c(N)nc21 [Entecavir]
Serum HBV DNA, % of individual pre-treatment baseline (Day 0) ([1]; Example 3, Day 4, ETV 100 ng/kg oral once daily): 21 ± 5% | Serum HBV DNA, % of individual pre-treatment baseline (Day 0) ([1]; Example 3, Day 4, ETV 300 ng/kg oral once daily): 1.6 ± 0.3% | Serum HBV DNA, % of individual pre-treatment baseline (Day 0) ([1]; Example 3, Day 7, ETV 100 ng/kg oral once daily): 3.5 ± 0.7% | Serum HBV DNA, % of individual pre-treatment baseline (Day 0) ([1]; Example 3, Day 7, ETV 300 ng/kg oral once daily): 0.88 ± 0.31% | Serum HBV DNA [2, 4]: 1.48E+08 Copies/mL | Serum HBV DNA [2, 5]: 2.35E+07 Copies/mL | Serum HBV DNA ([2]; Day 14, same dosages): 1.38E+07 Copies/mL | Serum HBV DNA ([2]; Day 21, same dosages): 1.35E+07 Copies/mL | Serum HBV DNA ([2]; Day 28, same dosages): 9.33E+06 Copies/mL | Serum HBsAg ([3]; Day 0 (start of treatment)): 2649 ± 282 IU/mL | Serum HBsAg [3, 6]: 2975 ± 629 IU/mL

From patent US20220265817A1, “THERAPEUTIC COMPOSITIONS AND METHODS FOR TREATING HEPATITIS B” (priority 2017, published 2022)
